What follows are compounds tested on β-catenin-TCF-mediated reporter transcription activity in Colo 205 cells (assay: Colo 205 reporter assay (TCF/LEF luciferase)). Conditions: Colo 205 TCF/LEF luciferase reporter, five hours after addition of compound; read-out: TCF reporter Colo205 IC50.
Type: cell-based
How it was run: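 Luciferase signal from a TCF/LEF-driven reporter, stably integrated in Colo 205 colon cancer cells, was measured 5 h after compound addition.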
In the case of `CO[C@H](C)[C@H]1C(=O)Nc2c(C)nc(N[C@H]3C[C@@H](Cc4nc(C(F)(F)F)no4)C3)nc2N1C` [Compound 664, (S)-7-((R)-1-methoxyethyl)-4,8-dimethyl-2-(((1s,3R)-3-((3-(trifluoromethyl)-1,2,4-oxadiazol-5-yl)methyl)cyclobutyl)amino)-7,8-dihydropteridin-6(5H)-one], the IC50 is reported as 300 to 1000 nM.

Same assay, conditions: Homo sapiens, 5 h; Colo 205 TCF/LEF luciferase reporter, five hours after addition of compound; read-out: TCF reporter Colo205 IC50
With `Cc1nc(N[C@H]2C[C@H](NC(=O)Oc3cc(F)c(F)c(F)c3)C2)nc2c1NC(=O)[C@H](C)N2C` [Compound 483, 3,4,5-trifluorophenyl (trans-3-(((S)-4,7,8-trimethyl-6-oxo-5,6,7,8-tetrahydropteridin-2-yl)amino)cyclobutyl)carbamate] the IC50 was 1000 to 5000 nM.

Same assay, conditions: Homo sapiens, COLO 205, 5 h, Colo 205 TCF/LEF luciferase reporter, five hours after addition of compound; read-out: TCF reporter Colo205 IC50
`Cc1nc(NCc2cnn(Cc3ccc(C(F)(F)F)nc3)c2)nc2c1NC(=O)[C@H](CC(C)C)N2C` [Compound 563, (S)-7-isobutyl-4,8-dimethyl-2-(((1-((6-(trifluoromethyl)pyridin-3-yl)methyl)-1H-pyrazol-4-yl)methyl)amino)-7,8-dihydropteridin-6(5H)-one] gave an IC50 of under 300 nM.
`C#Cc1cccc(OC[C@H]2C[C@@H](Nc3nc(C)c4c(n3)N(C)[C@@H](C)C(=O)N4)C2)c1` [Compound 283, (7S)-2-((cis-3-((3-ethynylphenoxy)methyl)cyclobutyl)amino)-4,7,8-trimethyl-7,8-dihydropteridin-6(5H)-one] was tested, and the IC50 was under 300 nM.
For `CO[C@H](C)[C@H]1C(=O)Nc2c(C)nc(N[C@H]3C[C@@H](Cn4ccc(C(F)(F)F)n4)C3)nc2N1C` [Compound 691, (S)-7-((R)-1-methoxyethyl)-4,8-dimethyl-2-((cis-3-((3-(trifluoromethyl)-1H-pyrazol-1-yl)methyl)cyclobutyl)amino)-7,8-dihydropteridin-6(5H)-one], the IC50 was under 300 nM.
For `Cc1nc(NCc2cnn(C[C@@H]3CCCN3c3cc(F)cc(F)c3)c2)nc2c1NC(=O)[C@H](C)N2C` [Compound 219, (7S)-2-(((1-(((S)-1-(3,5-difluorophenyl)pyrrolidin-2-yl)methyl)-1H-pyrazol-4-yl)methyl)amino)-4,7,8-trimethyl-7,8-dihydropteridin-6(5H)-one], the IC50 was under 300 nM.
`Cc1nc(NC2CN(C(=O)C3(C)CCCO3)C2)nc2c1NC(=O)[C@H](C(C)C)N2C` (stereo partly drawn) [Compound 638, (7S)-7-isopropyl-4,8-dimethyl-2-((1-(2-methyltetrahydrofuran-2-carbonyl)azetidin-3-yl)amino)-7,8-dihydropteridin-6(5H)-one] was tested, and the IC50 was at least 5000 nM.
`Cc1nc(N[C@@H]2CC[C@@H](N(C)c3ccc(C(F)(F)F)cc3)C2)nc2c1NC(=O)[C@H](C(C)C)N2C` [Compound 504, (S)-7-isopropyl-4,8-dimethyl-2-(((1R,3R)-3-(methyl(4-(trifluoromethyl)phenyl)amino)cyclopentyl)amino)-7,8-dihydropteridin-6(5H)-one] gave an IC50 of 300 to 1000 nM.
Compound `Cc1nc(NCc2cnn(CCc3ccc(F)cc3F)c2)nc2c1NC(=O)[C@H](C)N2C` [Compound 106, (7S)-2-(((1-(2,4-difluorophenethyl)-1H-pyrazol-4-yl)methyl)amino)-4,7,8-trimethyl-7,8-dihydropteridin-6(5H)-one] has an IC50 of under 300 nM.
`Cc1nc(N[C@H]2C[C@H](N(C)c3cnc(C(F)(F)F)cn3)C2)nc2c1NC(=O)[C@H](C)N2C` [Compound 683, (S)-4,7,8-trimethyl-2-((trans-3-(methyl(5-(trifluoromethyl)pyrazin-2-yl)amino)cyclobutyl)amino)-7,8-dihydropteridin-6(5H)-one] showed an IC50 of 300 to 1000 nM.
With `Cc1nc(N[C@H]2C[C@@H](Nc3ccc(C(F)(F)F)cn3)C2)nc2c1NC(=O)[C@H](C(C)C)N2C` [Compound 534, (S)-7-isopropyl-4,8-dimethyl-2-((cis-3-((5-(trifluoromethyl)pyridin-2-yl)amino)cyclobutyl)amino)-7,8-dihydropteridin-6(5H)-one] the IC50 was under 300 nM.
`Cc1nc(N[C@H]2C[C@H](Oc3ccc(C(F)(F)F)nc3)C2)nc2c1N(C)C(=O)[C@H](C)N2C` [Compound 323, (7S)-4,5,7,8-tetramethyl-2-((trans-3-((6-(trifluoromethyl)pyridin-3-yl)oxy)cyclobutyl)amino)-7,8-dihydropteridin-6(5H)-one] showed an IC50 of under 300 nM.
`O=C1Nc2cnc(NCc3cnn(CCc4ccc(F)cc4)c3)nc2N[C@H]1CCO` [Compound 13, (7S)-2-(((1-(4-fluorophenethyl)-1H-pyrazol-4-yl)methyl)amino)-7-(2-hydroxyethyl)-7,8-dihydropteridin-6(5H)-one] showed an IC50 of at least 5000 nM.
`CO[C@H](C)[C@H]1C(=O)Nc2c(C)nc(N[C@H]3C[C@@H](N(C)c4cnc(C(F)(F)F)cn4)C3)nc2N1C` [Compound 651, (S)-7-((R)—1-methoxyethyl)-4,8-dimethyl-2-((cis-3-(methyl(5-(trifluoromethyl)pyrazin-2-yl)amino)cyclobutyl)amino)-7,8-dihydropteridin-6(5H)-one] showed an IC50 of 1000 to 5000 nM.
For `COc1cc(Cn2cc(CNc3nc(C)c4c(n3)N(C)[C@@H](C)C(=O)N4)cn2)cnc1C(F)(F)F` [Compound 213, (7S)-2-(((1-((5-methoxy-6-(trifluoromethyl)pyridin-3-yl)methyl)-1H-pyrazol-4-yl)methyl)amino)-4,7,8-trimethyl-7,8-dihydropteridin-6(5H)-one], the IC50 was under 300 nM.
`Cc1nc(NC2CN(C(=O)[C@@H]3CCCO3)C2)nc2c1NC(=O)[C@H](C(C)C)N2C` [Compound 642, (S)-7-isopropyl-4,8-dimethyl-2-((1-((S)-tetrahydrofuran-2-carbonyl)azetidin-3-yl)amino)-7,8-dihydropteridin-6(5H)-one] showed an IC50 of at least 5000 nM.
`Cc1ccc(O[C@H]2C[C@H](Nc3nc(C)c4c(n3)N(C)[C@@H](C)C(=O)N4)C2)cc1` [Compound 339, (7S)-4,7,8-trimethyl-2-((trans-3-(p-tolyloxy)cyclobutyl)amino)-7,8-dihydropteridin-6(5H)-one] was tested, and the IC50 was 300 to 1000 nM.
`CC[C@H]1C(=O)Nc2c(C)nc(NCc3cnn(Cc4ccc(C(F)(F)F)o4)c3)nc2N1C` [Compound 516, (S)-7-ethyl-4,8-dimethyl-2-(((1-((5-(trifluoromethyl)furan-2-yl)methyl)-1H-pyrazol-4-yl)methyl)amino)-7,8-dihydropteridin-6(5H)-one] showed an IC50 of under 300 nM.
Work on `Cc1nc(N[C@H]2C[C@H](Oc3ccc(OC(F)(F)F)c(F)c3)C2)nc2c1N(C)C(=O)[C@H](C)N2C` [Compound 360, (7S)-2-((trans 3-(3-fluoro-4-(trifluoromethoxy)phenoxy)cyclobutyl)amino)-4,5,7,8-tetramethyl-7,8-dihydropteridin-6(5H)-one] yielded an IC50 of under 300 nM.
For `Cc1nc(N[C@H]2CCN(Cc3ccc(F)cc3)C2)nc2c1NC(=O)[C@H](C)N2C` [Compound 374, (7S)-2-(((S)-1-(4-fluorobenzyl)pyrrolidin-3-yl)amino)-4,7,8-trimethyl-7,8-dihydropteridin-6(5H)-one], the IC50 was at least 5000 nM.
`Cc1nc(NC2CN(C(=O)c3csc(Cl)n3)C2)nc2c1NC(=O)[C@H](C(C)C)N2C` [Compound 630, (S)-2-((1-(2-chlorothiazole-4-carbonyl)azetidin-3-yl)amino)-7-isopropyl-4,8-dimethyl-7,8-dihydropteridin-6(5H)-one] gave an IC50 of 1000 to 5000 nM.
`Cc1nc(NCc2cnn(Cc3ccc(OC(F)(F)F)nc3)c2)nc2c1NC(=O)[C@H](C(C)C)N2C` [Compound 510, (S)-7-isopropyl-4,8-dimethyl-2-(((1-((6-(trifluoromethoxy)pyridin-3-yl)methyl)-1H-pyrazol-4-yl)methyl)amino)-7,8-dihydropteridin-6(5H)-one] was tested, and the IC50 was under 300 nM.
In the case of `Cc1nc(NCc2cnn(Cc3ccc(C(F)(F)F)cn3)c2)nc2c1NC(=O)[C@H](C)N2C` [Compound 200, (7S)-4,7,8-trimethyl-2-(((1-((5-(trifluoromethyl)pyridin-2-yl)methyl)-1H-pyrazol-4-yl)methyl)amino)-7,8-dihydropteridin-6(5H)-one], the IC50 is reported as 300 to 1000 nM.
`COc1ccc(Cn2ccc(CNc3nc(C)c4c(n3)N(C)[C@@H](C)C(=O)N4)n2)cc1OC` [Compound 76, (7S)-2-(((1-(3,4-dimethoxybenzyl)-1H-pyrazol-3-yl)methyl)amino)-4,7,8-trimethyl-7,8-dihydropteridin-6(5H)-one] gave an IC50 of at least 5000 nM.
With `Cc1nc(NC2CN(Cc3ccc(C(F)(F)F)cc3)C2)nc2c1NC(=O)[C@H](C(C)C)N2C` [Compound 650, (S)-7-isopropyl-4,8-dimethyl-2-((1-(4-(trifluoromethyl)benzyl)azetidin-3-yl)amino)-7,8-dihydropteridin-6(5H)-one] the IC50 was under 300 nM.
`Cc1cnc(C(F)(F)F)nc1-n1cc(CNc2nc(C)c3c(n2)N(C)[C@@H](C)C(=O)N3)cn1` [Compound 161, (7S)-4,7,8-trimethyl-2-(((1-(5-methyl-2-(trifluoromethyl)pyrimidin-4-yl)-1H-pyrazol-4-yl)methyl)amino)-7,8-dihydropteridin-6(5H)-one] showed an IC50 of 300 to 1000 nM.
`COc1ccc(O[C@H]2C[C@H](Nc3nc(C)c4c(n3)N(C)[C@@H](C)C(=O)N4)C2)cc1OC` [Compound 352, (7S)-2-((trans-3-(3,4-dimethoxyphenoxy)cyclobutyl)amino)-4,7,8-trimethyl-7,8-dihydropteridin-6(5H)-one] was tested, and the IC50 was 1000 to 5000 nM.
With `Cc1nc(NC2CN(C(=O)Cc3cc(F)c(F)c(F)c3)C2)nc2c1NC(=O)[C@H](C(C)C)N2C` [Compound 544, (S)-7-isopropyl-4,8-dimethyl-2-((1-(2-(3,4,5-trifluorophenyl)acetyl)azetidin-3-yl)amino)-7,8-dihydropteridin-6(5H)-one] the IC50 was under 300 nM.

Same assay, conditions: Homo sapiens, COLO 205, 5 h, R-isomer at C2 (corresponding to C2 S-isomer); Colo 205 TCF/LEF luciferase reporter, 5 h; read-out: TCF reporter Colo205 IC50
In the case of `Cc1nc(NCc2cnn(Cc3ccncc3C(F)(F)F)c2)nc2c1NC(=O)[C@@H](C)N2C` [Compound I-1637], the IC50 is reported as 1000 to 5000 nM.
Work on `CCC[C@@H]1C(=O)Nc2c(C)nc(NCc3cnn(Cc4ccc(C(F)(F)F)nc4)c3)nc2N1C` [Compound I-1638] yielded an IC50 of 1000 to 5000 nM.
